# pIC50: −log10 of the molar value.
# How the values were obtained:
# Kdr = target: T1, Kdr (Mus musculus, UniProt P35918); experiment: In vivo Kdr target inhibition assay (VEGF induced phospho-Kdr in mouse heart); details: female nude mice, oral gavage, VEGF i.v., heart tissue
# T1 construct: Heart tissues are collected and homogenized as described above; from tissue; host or cells: heart of female nude mice (CD1/nu/nu)
# Protocol: To assess the activity of this compound against Kdr, female nude mice (CD1/nu/nu) are acclimated and treated as described above except VEGF is used to induce Kdr autophosphorylation {VEGF (6 ug/animal, R & D Systems 493-MV/CF). Heart tissues are collected and homogenized as described above. The resulting homogenates are analyzed using MSD® phospho-Kdr ELISA (Meso Scale Discovery, catalog number N41ZA-1) to determine tissue phospho-Kdr level. […] The positive control group is treated with VEGF […]) in saline administered intravenously (as minimum p-KDR inhibition of 0%).
# [1] = test system: human multiple myeloma cells OPM-2; experiment: Xenograft tumor model OPM-2 (multiple myeloma); type: in vivo, nude mice; details: oral gavage
# Source text: (§1) One of Human bladder cancer cells RT112 (European Collection of Cell Cultures), human multiple myeloma cells OPM-2 (German Collection of Microorganisms and Cell Cultures), human non-small cell lung cancer (NSCL) cells NCI-H460 (American Type Culture Collection), human pancreatic cancer cells BxPC-3 (American Type Culture Collection) or human gastric cancer cells SNU-16 (American Type Culture Collection) are expanded in culture, according to KOREAN CELL LINE BANK (KCLB) recommendations, harvested and injected subcutaneously onto the rear flank of nude mice. When tumors are established (7-21 days after implant), animals are randomized and grouped into control and test groups. Test compound is prepared in an appropriate vehicle (i.e. formulated in 10% Acacia), and the test compound and a vehicle control are administered by oral gavage. Tumor response is determined by tumor volume measurement performed twice a week during the course of treatment and reported as percent inhibition of tumor volume versus the vehicle control group.
# [2] = test system: human non-small cell lung cancer (NSCL) cells NCI-H460; experiment: Xenograft tumor model NCI-H460 (NSCLC); type: in vivo, nude mice; details: oral gavage
# Source text: as §1
# [3] = test system: human gastric cancer cells SNU-16; experiment: Xenograft tumor model SNU-16 (gastric); type: in vivo, nude mice; details: oral gavage
# Source text: as §1
# [4] = test system: human pancreatic cancer cells BxPC-3; experiment: Xenograft tumor model BxPC-3 (pancreatic); type: in vivo, nude mice; details: oral gavage
# Source text: as §1
# [5] = test system: FGF9 induced ERK phosphorylation in Human RT112 bladder carcinoma cells; experiment: FGF9 induced p-ERK with BSA in RT112 cells; type: cell-based; details: RT-112, relative IC50, RT112 cells, 20 mg/mL BSA, 500 ng/mL FGF9
# Protocol: Human RT112 bladder carcinoma cells are seeded at a density of 5,000 cells per well in 100 μL RPMI 1640 (Gibco 11875-085) supplemented with 10% fetal bovine serum (FBS, Gibco 10082-147) and 1% of a penicillin/streptomycin solution (Gibco 15140-122) in CELLBIND® 96 well plates (Corning 3340) and incubated overnight at 37° C. The next morning the growth medium is removed and replaced with 100 μL RPMI 1640 supplemented with 20 mg/mL bovine serum albumin (BSA). After 3 hours of incubation at 37° C., 20 μL of 3× serially diluted compounds in RPMI 1640 with 20 mg/mL BSA in 6% DMSO are added to each well. This yielded a 10 point dose-response curve ranging from 10-0.005 μM in 1% DMSO. The incubation is continued for 1 hour at 37° C. The cells are stimulated with 50 μL of a […] FGF9 (R&D Systems 273-F9) solution in serum free RPMI to give a final concentration of 500 ng/mL FGF9. Cells are fixed by the addition of 30 μL of a 25% formaldehyde solution in phosphate buffered saline (PBS) (3.7% formaldehyde final concentration), and incubated 30 minutes at RT. Cells are washed 3× with PBS, followed by the addition of 100 μL of cold methanol and incubated for 30 minutes at −20° C. The methanol is removed and the cells are treated with PBS containing 0.1% TRITON® X-100 (PBST), washed 3× with PBS, and incubated 15 minutes at RT. […]
# [6] = test system: Human bladder cancer cells RT112; experiment: Xenograft tumor model RT-112 (bladder); type: in vivo, nude mice; details: oral gavage
# Source text: as §1
# [7] = test system: FGF receptor 1 (b-FGF induced pERK in HUVEC); experiment: AlphaScreen SureFire Detection of ERK phosphorylation (Thr202/Tyr204) in HUVEC; type: cell-based; details: Homo sapiens, b-FGF 50 ng/mL, 20 mg/mL BSA
# Protocol: The effect of compounds on the inhibition of FGF receptor 1 is measured by monitoring the phosphorylation of ERK (pERK) in response to basic-Fibroblast growth factor (b-FGF) stimulation in Human Umbilical Endothelial cells (HUVEC). The levels of pERK formed are measured using the ALPHASCREEN® […]® system (TGR Biosciences, TGRES50K). This is a homogeneous assay format utilizing the immuno-sandwich capture of the phosphorylated analyte followed by detection using antibody-coated ALPHASCREEN® beads (Perkin Elmer) to generate an amplified signal.
# HUVEC cells are recovered and maintained in growth medium consisting of endothelial cell basal medium (Clonetics, CC-3132) supplemented with 10% FBS 0.4% bovine brain extract 0.1% hydrocortisone, 0.1% gentamicin sulfate amphotericin-B (GA-1000), and 0.1% epidermal growth factor, human recombination until passage 7. For the assay, cells are harvested by standard procedures and then counted. Cells (20,000/well) are plated in 100 μL of growth medium into 96 well Poly-D-Lysine coated plates (BD, 354640). Plates are incubated overnight at 37° C., 5% CO2.
# On the day of the assay, cells are serum starved in 100 μL EBM (endothelial cell basal) medium containing 1.5% FBS and 20 mg/mL BSA for 3 hours at 37° C., 5% CO2, then treated with 20 μL of 3× serially diluted compounds in starvation medium for 1 hour at 37° C. […]
# T1 sequence (P35918 20-1345): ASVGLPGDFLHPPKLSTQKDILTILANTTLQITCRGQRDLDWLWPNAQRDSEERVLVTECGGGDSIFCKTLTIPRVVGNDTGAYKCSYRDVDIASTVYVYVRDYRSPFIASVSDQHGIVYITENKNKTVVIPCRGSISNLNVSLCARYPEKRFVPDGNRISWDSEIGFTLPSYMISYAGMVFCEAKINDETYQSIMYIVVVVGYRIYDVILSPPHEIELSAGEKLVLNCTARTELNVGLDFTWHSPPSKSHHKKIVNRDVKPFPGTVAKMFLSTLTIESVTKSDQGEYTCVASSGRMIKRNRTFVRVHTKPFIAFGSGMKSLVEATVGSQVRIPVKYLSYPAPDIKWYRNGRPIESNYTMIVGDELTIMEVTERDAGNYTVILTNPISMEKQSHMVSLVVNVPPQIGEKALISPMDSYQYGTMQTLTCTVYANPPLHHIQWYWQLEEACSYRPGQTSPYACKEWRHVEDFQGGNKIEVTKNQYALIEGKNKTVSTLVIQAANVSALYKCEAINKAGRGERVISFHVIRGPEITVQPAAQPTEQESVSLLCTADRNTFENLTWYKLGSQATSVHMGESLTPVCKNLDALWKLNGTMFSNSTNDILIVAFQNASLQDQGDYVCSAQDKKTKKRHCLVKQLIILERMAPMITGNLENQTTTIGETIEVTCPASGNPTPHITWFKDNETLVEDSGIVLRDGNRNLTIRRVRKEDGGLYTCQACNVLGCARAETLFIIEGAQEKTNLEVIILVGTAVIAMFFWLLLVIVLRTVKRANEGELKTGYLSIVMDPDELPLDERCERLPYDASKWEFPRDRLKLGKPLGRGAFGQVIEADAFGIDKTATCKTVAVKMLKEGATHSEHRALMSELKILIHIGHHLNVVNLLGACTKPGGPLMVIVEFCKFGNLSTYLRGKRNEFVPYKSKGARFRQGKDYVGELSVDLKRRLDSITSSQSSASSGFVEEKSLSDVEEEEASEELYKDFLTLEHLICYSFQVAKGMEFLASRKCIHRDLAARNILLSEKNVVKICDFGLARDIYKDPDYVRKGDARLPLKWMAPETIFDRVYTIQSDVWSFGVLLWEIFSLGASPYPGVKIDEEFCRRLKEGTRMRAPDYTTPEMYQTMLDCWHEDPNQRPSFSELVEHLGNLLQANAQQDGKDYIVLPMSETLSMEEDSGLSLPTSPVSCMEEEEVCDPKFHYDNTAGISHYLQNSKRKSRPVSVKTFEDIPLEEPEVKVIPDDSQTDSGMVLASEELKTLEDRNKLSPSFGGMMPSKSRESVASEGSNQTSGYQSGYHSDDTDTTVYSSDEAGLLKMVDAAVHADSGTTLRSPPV
compound,measurement,setting,value
"C[C@@H](Oc1ccc2[nH]nc(/C=C/c3cnn(CCO)c3)c2c1)c1c(Cl)cncc1Cl [Example 1, (R)-(E)-2-(4-(2-(5-(1-(3,5-Dichloropyridin-4-yl)ethoxy)-1H-indazol-3-yl)vinyl)-1H-pyrazol-1-yl)ethanol]",TEC90 (concentration necessary to achieve 90% inhibition of phospho-Kdr),Kdr,252 nM
same,TED50 (dose necessary to achieve 50% inhibition of phospho-Kdr),Kdr,1.34 mg/kg
same,percent inhibition of tumor volume versus vehicle control,"[1]; OPM-2, 3 mg/kg BID for 21 days",84%
same,percent inhibition of tumor volume versus vehicle control,"[1]; OPM-2, 3 mg/kg QD for 21 days",68%
same,percent inhibition of tumor volume versus vehicle control,"[2]; NCI-H460, 3 mg/kg BID for 17 days",69%
same,percent inhibition of tumor volume versus vehicle control,"[2]; NCI-H460, 3 mg/kg QD for 17 days",46%
same,percent inhibition of tumor volume versus vehicle control,"[3]; SNU-16, 3 mg/kg BID for 17 days",83%
same,percent inhibition of tumor volume versus vehicle control,"[3]; SNU-16, 3 mg/kg QD for 17 days",62%
same,percent inhibition of tumor volume versus vehicle control,"[4]; BxPC-3, 3 mg/kg BID for 21 days",55%
same,percent inhibition of tumor volume versus vehicle control,"[4]; BxPC-3, 3 mg/kg QD for 21 days",1%
same,pIC50,[5],9.40
same,percent inhibition of tumor volume versus vehicle control,"[6]; RT-112, 3 mg/kg BID for 21 days",85.9%
same,percent inhibition of tumor volume versus vehicle control,"[6]; RT-112, 3 mg/kg QD for 21 days",41.3%
same,pIC50,[7],9.22

# Reference: patent US8268869B2, “Vinyl indazolyl compounds” (Eli Lilly and Company, priority 2009, dated 2012)
